The text below walks through data of US20230193181A1, “3D Tissue Printing” (Oxford University Innovation Limited, priority 2020, published 2023).

For data set [1], the system named is printed neural tissue arrays (astrocytes and RFP-NPCs in Matrigel). The data set can be described thus: Neurotoxicity test using printed neural tissue arrays. As to the method: FIG. 20a, The experimental process of drug testing using printed neural tissue arrays. From left to right: 2D cultured astrocytes and RFP-NPCs were harvested and added to Matrigel for the preparation of bio-ink with a cell density ratio of 3:1 (astrocytes vs RFP-NPCs) and total cell density of 4×10^7 mL^−1. The prepared bio-ink were printed into droplet arrays with individual droplet size around 100 μm. On the next day, cancer chemotherapy drugs were added to the culture medium. The neurotoxicity of the drugs were assessed after a further 24 hrs. FIG. 20b, Fluorescent images of neural tissues treated with DMSO (control) and cancer chemotherapy drugs with different reported neurotoxicity risks: 5-Fluorouracil (minor), Carboplatin (moderate), Taxol (high). […] FIG. 20c, Comparison of the neurotoxicity of different chemotherapy drugs.
Neurotoxicity of cancer chemotherapy drugs occurs frequently in clinic and often limit the dose of chemotherapy. We tested three chemotherapy drugs that are reported in clinic with low, moderate and high risks of neurotoxicity, using printed droplet arrays containing neural tissues (astrocytes and NSCs in Matrigel).

The conditions of data set [2]: reported in clinic; cited from earlier work.
The subject of data set [3] is RFP-hNSCs. The data set can be described thus: Toxicity test of DPhPC on hNSCs. To be noted: DPhPC at 100 μg/mL or 400 μg/mL in neural maintenance medium; three days of culture. Type of data set: cell-based, human. As to the method: RFP-hNSCs were cultured in neural maintenance medium containing no lipid (control) or DPhPC at either 100 μg/mL or 400 μg/mL. Arrows indicate the formation of neural rosette-like structures under all conditions after three days of culture.

Data set [4] relates to iPSCs derived NPCs. The data set can be described thus: Oil toxicity test using iPSCs derived NPCs. Format: cell-based. To be noted: oil on top of medium of 2D cultured NPCs, 5 days; live (CAM)/dead (PI) staining on day 5. As to the method:
2D cultured NPCs were added with oil on top of medium and cultured for 5 days. Life (CAM, in green) and Dead (PI, in read) staining were conducted on day 5.
Bioreactors have been used in macro-scale to support biological active environment. However, nanoliter-sized bioreactors would offer the potential to study biological events with much small number of cells, and the potential application in high throughput assays. We firstly optimised the oil surrounding the nano-bioreactors, which plays a large role in the viability of the encapsulated neural tissues. […] The optimised conditions allow the growth of individual low-nanoliter sized neural tissue inside each nano-bioreactor, without interaction with cells in other nano-bioreactors. With differentiation medium, neural process outgrowth and neural migration were observed and assessed in nano-bioreactors. This technique have the potential for a low-cost HTS, as minimal cells and reagents are required. It also offers the potential application to study biological events where a small organised cluster of cells were involved, such as early stage embryogenesis and tumorigenesis.

In data set [5] the test system is printed neural tissues. The data set can be described thus: Fluo-4 calcium imaging of printed neural tissues after KCl stimulation. Format: cell-based, human. Particulars: KCl 60 mM, 65 days ppd. An excerpt:
FIG. 3d-f show spontaneous calcium oscillations (FIG. 3d), single-cell traces (FIG. 3e) and correlation coefficient analysis (FIG. 3f) of printed neural tissues at 44 days ppd. The data reveal increased neural communication after a longer period of differentiation. […] Intensities are false-coloured according to the ‘fire’ Look Up Table of Fiji. […] Images are false-coloured as in FIG. 3g. Scale bars are all 100 μm.
Calcium imaging and correlation analysis. A Fluo-4 Direct™ calcium assay kit (F10471, Invitrogen) was used according to the manufacturer's instructions to measure calcium activities. Briefly, printed neural tissues were transferred to 48-well plates and incubated with NMM/Fluo-4 calcium imaging reagents (v:v, 1:1) for 1 h at 37° C. Both spontaneous and evoked calcium recordings were recorded at 37° C. by fluorescence confocal microscopy (Leica SP5) at 1 frame per 2 seconds for FIG. 3a, 1 frame per 15 seconds FIG. 3d and 1 frame per 1 second for FIG. 3g. Pre-processing and analysis of time-lapse calcium recordings were performed in MATLAB. […] Individual neuronal somata were manually selected as ROIs, and the pixel mask in the local area was refined using ICA-based de-mixing of fluorescent transients. ΔF/F0 at time t was calculated with a moving baseline as: […]

Data set [6] deals with Astrocytes in droplet arrays. The data set can be described thus: Fluo-4 calcium live imaging of astrocytes in droplet arrays after KCl stimulation. Type of data set: cell-based, human. Particulars: KCl 60 mM. How it is done:
FIG. 19a, human primary cortical astrocyte printed in an array. Astrocytes were printed at a cell density of 4×10^7 mL^−1 in Matrigel. Left: Calcein AM (CAM) staining of printed astrocytes at 2 days post printing. The dashed box indicates the area of the higher magnification image on the right (top two images in the middle). Top right row: higher magnification images of astrocyte printed in Matrigel (CAM staining image and the corresponding brightfield image) and image of astrocytes (brightfield with CAM staining) printed in agarose as the matrix. Bottom right row: immunostaining images of printed astrocytes with astrocyte markers vimentin (yellow) and GFAP (magenta). FIG. 19b, Spontaneous calcium fluctuations of astrocytes in printed droplet arrays. Left: Individual time-point frames of Fluo-4 calcium live imaging. Right: single-cell traces of the cells indicated by the colour-coded circles in the images (left panel). […] Proportions of astrocytes with spontaneous calcium fluctuations were measured at four conditions: 2D monolayer cell culture, and printed astrocyte, astrocyte-NPC, and astrocyte-MDA (a metastatic breast cancer cell line) droplet arrays. n>20 for all four conditions. *: P<0.05, **: P<0.01, ***: P<0.001 and ****: P<0.0001. […]

Molecules are shown by their SMILES. “Also recorded” adds a separate entry of the source.

Take `N.N.O=C([O-])C1(C(=O)[O-])CCC1.[Pt+2]` [Carboplatin]: in data set [1] (drugs added to culture medium the day after printing, assessed after a further 24 hrs, astrocytes:RFP-NPCs 3:1, n>25, P<0.05), the “neurotoxicity against neural cells in printed neural tissue arrays” value was “higher toxicity against neural cells compared to 5-Fluorouracil”. The reported neurotoxicity risk result in data set [2] is “moderate”.

As for `CC(C)CCCC(C)CCCC(C)CCCC(C)CC(=O)OC[C@H](COP(=O)([O-])OCC[N+](C)(C)C)OC(=O)CC(C)CCCC(C)CCCC(C)CCCC(C)C` (stereo partly drawn) [DPhPC, 1,2-diphytanoyl-sn-glycero-3-phosphocholine], the “toxicity of DPhPC on hNSCs (neural rosette-like structure formation vs no-lipid control)” value in data set [3] is “No obvious differences”.

As to `O=c1[nH]cc(F)c(=O)[nH]1` [5-Fluorouracil], the reported neurotoxicity risk result in data set [2] is “minor”.

For `CC(=O)O[C@H]1C(=O)[C@@]2(C)[C@H]([C@H](OC(=O)c3ccccc3)[C@]3(O)C[C@H](OC(=O)[C@H](O)[C@@H](NC(=O)c4ccccc4)c4ccccc4)C(C)=C1C3(C)C)[C@]1(OC(C)=O)CO[C@@H]1C[C@@H]2O` [Taxol], the “neurotoxicity against neural cells in printed neural tissue arrays” value in data set [1] (human, 24 h) is on record as “higher toxicity against neural cells compared to 5-Fluorouracil”. The reported neurotoxicity risk entry in data set [2] is reported as “high”.

In the case of `CCCCCCCC/C=C\CCCCCCCC(=O)OCC(COC(=O)CCCCCCC/C=C\CCCCCCCC)OC(=O)CCCCCCC/C=C\CCCCCCCC` [glyceryl trioleate], the “oil toxicity to NPCs” value in data set [4] is “not toxic”.

Regarding `[Cl-].[K+]` [KCl], the “calcium response of printed neural tissues to KCl” value in data set [5] was “induced a rapid calcium transient in a cell; also recorded: evoked rapid Ca^2+ transients”. Further, in data set [6], the “calcium response of astrocytes in droplet arrays to KCl stimulation” value is reported as “responsive”.
